# Test results as given in PubChem BioAssay AID1963972 (Molecular Pharmacology Branch, DTP, NCI, 2024).
# Tested on: 945468-187-T-J2-PDC spheroids viability
# Experiment: Anticancer human tumor 945468-187-T-J2-PDC patient-derived rectal carcinoma cell line growth inhibition [PI3K]
# Conditions: spheroids with HUVEC and MSC; for IC50: curve of first compound; for viability, T/C: stronger effect = lower value
# Summary of the method: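 Multi-cell spheroids combine tumor cells with HUVEC and human MSCs, treated with targeted agents alone or with inavolisib, alpelisib, duvelisib or copanlisib. Concentrations fall in half-log steps from at or near clinical Cmax, or from 10 microM where Cmax is unknown; viability read-out.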
# [1] = second compound 0.00316 µM, first compound 0.0316 µM
# [2] = second compound 0.00316 µM, first compound 0.1 µM
# [3] = second compound 0.00316 µM, first compound 0.316 µM
# [4] = second compound 0.00316 µM, first compound 1 µM
# [5] = second compound 0.00316 µM, first compound 3.16 µM
# [6] = second compound 0.00316 µM, first compound 10 µM
# [7] = second compound 0.01 µM, first compound 0.0316 µM
# [8] = second compound 0.01 µM, first compound 0.1 µM
# [9] = second compound 0.01 µM, first compound 0.316 µM
# [10] = second compound 0.01 µM, first compound 1 µM
# [11] = second compound 0.01 µM, first compound 3.16 µM
# [12] = second compound 0.01 µM, first compound 10 µM
# [13] = second compound 0.0316 µM, first compound 0.0316 µM
# [14] = second compound 0.0316 µM, first compound 0.1 µM
# [15] = second compound 0.0316 µM, first compound 0.316 µM
# [16] = second compound 0.0316 µM, first compound 1 µM
# [17] = second compound 0.0316 µM, first compound 3.16 µM
# [18] = second compound 0.0316 µM, first compound 10 µM
# [19] = second compound 0.1 µM, first compound 0.0316 µM
# [20] = second compound 0.1 µM, first compound 0.1 µM
# [21] = second compound 0.1 µM, first compound 0.316 µM
# [22] = second compound 0.1 µM, first compound 1 µM
# [23] = second compound 0.1 µM, first compound 3.16 µM
# [24] = second compound 0.1 µM, first compound 10 µM
# [25] = second compound 0.316 µM, first compound 0.0316 µM
# [26] = second compound 0.316 µM, first compound 0.1 µM
# [27] = second compound 0.316 µM, first compound 0.316 µM
# [28] = second compound 0.316 µM, first compound 1 µM
# [29] = second compound 0.316 µM, first compound 3.16 µM
# [30] = second compound 0.316 µM, first compound 10 µM
# [31] = second compound 1 µM, first compound 0.0316 µM
# [32] = second compound 1 µM, first compound 0.1 µM
# [33] = second compound 1 µM, first compound 0.316 µM
# [34] = second compound 1 µM, first compound 1 µM
# [35] = second compound 1 µM, first compound 3.16 µM
# [36] = second compound 1 µM, first compound 10 µM
# 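Also: spheroids exposed to compounds for seven days before reading.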
compound,measurement,setting,value
C#Cc1c(F)ccc2cc(O)cc(-c3ncc4c(N5CC6CCC(C5)N6)nc(OCC56CCCN5CC(F)C6)nc4c3F)c12 (stereo unspecified) + CC(Nc1ccc2c(c1)OCCn1cc(N3C(=O)OCC3C(F)F)nc1-2)C(N)=O,IC50,second compound 0.00316 µM,> 10 µM
same,IC50,second compound 0.01 µM,> 10 µM
same,IC50,second compound 0.0316 µM,> 10 µM
same,IC50,second compound 0.1 µM,> 10 µM
same,IC50,second compound 0.316 µM,> 10 µM
same,IC50,second compound 1 µM,> 10 µM
same,"viability, T/C",[1],103%
same,"viability, T/C",[2],86.9%
same,"viability, T/C",[3],87.3%
same,"viability, T/C",[4],96.7%
same,"viability, T/C",[5],94%
same,"viability, T/C",[6],96.5%
same,"viability, T/C",[7],75.3%
same,"viability, T/C",[8],105%
same,"viability, T/C",[9],81.5%
same,"viability, T/C",[10],82.8%
same,"viability, T/C",[11],103%
same,"viability, T/C",[12],86.8%
same,"viability, T/C",[13],94.5%
same,"viability, T/C",[14],85.7%
same,"viability, T/C",[15],79.7%
same,"viability, T/C",[16],88.1%
same,"viability, T/C",[17],107%
same,"viability, T/C",[18],103%
same,"viability, T/C",[19],82.6%
same,"viability, T/C",[20],81.2%
same,"viability, T/C",[21],88.7%
same,"viability, T/C",[22],93.3%
same,"viability, T/C",[23],108%
same,"viability, T/C",[24],95.3%
same,"viability, T/C",[25],77%
same,"viability, T/C",[26],70.7%
same,"viability, T/C",[27],76.5%
same,"viability, T/C",[28],107%
same,"viability, T/C",[29],81.4%
same,"viability, T/C",[30],74.4%
same,"viability, T/C",[31],72%
same,"viability, T/C",[32],62.4%
same,"viability, T/C",[33],67.1%
same,"viability, T/C",[34],68.3%
same,"viability, T/C",[35],75.3%
same,"viability, T/C",[36],69.3%
CC(Cn1ccc(-c2ccc(C#N)c(Cl)c2)n1)NC(=O)c1cc(C(C)O)[nH]n1 (stereo unspecified) + CC(Nc1ccc2c(c1)OCCn1cc(N3C(=O)OCC3C(F)F)nc1-2)C(N)=O,IC50,second compound 0.00316 µM,> 10 µM
same,IC50,second compound 0.01 µM,> 10 µM
same,IC50,second compound 0.0316 µM,> 10 µM
same,IC50,second compound 0.1 µM,> 10 µM
same,IC50,second compound 0.316 µM,> 10 µM
same,IC50,second compound 1 µM,> 10 µM
same,"viability, T/C",[1],98.9%
same,"viability, T/C",[2],105%
same,"viability, T/C",[3],107%
same,"viability, T/C",[4],75.7%
same,"viability, T/C",[5],106%
same,"viability, T/C",[6],110%
same,"viability, T/C",[7],108%
same,"viability, T/C",[8],85.8%
same,"viability, T/C",[9],90.5%
same,"viability, T/C",[10],96.2%
same,"viability, T/C",[11],111%
same,"viability, T/C",[12],93.6%
same,"viability, T/C",[13],100%
same,"viability, T/C",[14],82%
same,"viability, T/C",[15],88%
same,"viability, T/C",[16],92%
same,"viability, T/C",[17],91.1%
same,"viability, T/C",[18],103%
same,"viability, T/C",[19],86.2%
same,"viability, T/C",[20],82%
same,"viability, T/C",[21],99.1%
same,"viability, T/C",[22],80.8%
same,"viability, T/C",[23],101%
same,"viability, T/C",[24],81.7%
same,"viability, T/C",[25],85.2%
same,"viability, T/C",[26],73.2%
same,"viability, T/C",[27],95.2%
same,"viability, T/C",[28],91.4%
same,"viability, T/C",[29],82.7%
same,"viability, T/C",[30],82.8%
same,"viability, T/C",[31],76.2%
same,"viability, T/C",[32],74.8%
same,"viability, T/C",[33],68.9%
same,"viability, T/C",[34],63.6%
same,"viability, T/C",[35],72.3%
same,"viability, T/C",[36],71.4%
CC1(C)CCC(Nc2ncc(C(F)(F)F)c(-c3c[nH]c4c(P(C)(C)=O)c(C#N)ccc34)n2)CN1 (stereo unspecified) + CC(Nc1ccc2c(c1)OCCn1cc(N3C(=O)OCC3C(F)F)nc1-2)C(N)=O,IC50,second compound 0.00316 µM,0.798 µM
same,IC50,second compound 0.01 µM,1.31 µM
same,IC50,second compound 0.0316 µM,2.11 µM
same,IC50,second compound 0.1 µM,1.06 µM
same,IC50,second compound 0.316 µM,0.896 µM
same,IC50,second compound 1 µM,4.24 µM
same,"viability, T/C",[1],96%
same,"viability, T/C",[2],115%
same,"viability, T/C",[3],71.8%
same,"viability, T/C",[4],50.2%
same,"viability, T/C",[5],34.2%
same,"viability, T/C",[6],49.6%
same,"viability, T/C",[7],91.6%
same,"viability, T/C",[8],92.7%
same,"viability, T/C",[9],88.8%
same,"viability, T/C",[10],52.5%
same,"viability, T/C",[11],40.5%
same,"viability, T/C",[12],42.7%
same,"viability, T/C",[13],82.2%
same,"viability, T/C",[14],98.3%
same,"viability, T/C",[15],61.1%
same,"viability, T/C",[16],64.3%
same,"viability, T/C",[17],42.9%
same,"viability, T/C",[18],43.8%
same,"viability, T/C",[19],105%
same,"viability, T/C",[20],91%
same,"viability, T/C",[21],81%
same,"viability, T/C",[22],48.5%
same,"viability, T/C",[23],41.8%
same,"viability, T/C",[24],51.4%
same,"viability, T/C",[25],77.5%
same,"viability, T/C",[26],103%
same,"viability, T/C",[27],89.3%
same,"viability, T/C",[28],45.8%
same,"viability, T/C",[29],39.8%
same,"viability, T/C",[30],31.6%
same,"viability, T/C",[31],85.3%
same,"viability, T/C",[32],76.3%
same,"viability, T/C",[33],67.3%
same,"viability, T/C",[34],65.7%
same,"viability, T/C",[35],54.6%
same,"viability, T/C",[36],40.1%
